Results reported in patent US20240115496A1, “A COMPOUND DRY POWDER INHALANT AND USE THEREOF” (TIANJIN UNIVERSITY OF TRADITIONAL CHINESE MEDICINE, priority 2021, published 2024).

What was measured:
[1] = Particle size distribution test, laser particle size analyzer, dry dispersion; assay type: physicochemical
Experimental: The particle size distribution of DPI dry powder was measured by dry dispersion method using laser particle size analyzer, and Dv10, Dv50, Dv90, VMD (Volume median diameter) and SMD (Sauter mean diameter) were determined, respectively.

[2] = system: rats having Bleo-induced pulmonary fibrosis; assay: Determination of lung factor in rats; assay type: in vivo, rat; conditions: Bleo rats after 28 days of treatment, n = 6; Bleo group 9.45, normal 4.09
Experimental: (§1) 48 SPF healthy SD male rats (weight of 180-220 g) were randomly divided into 8 groups, 6 rats for each group: (1) normal group (control group): normal rearing in the animal center; (2) sham group: this group was given the same dose of air by pulmonary administration; (3) Bleo model group: 100 μL of Bleo solution with a concentration of 12.5 mg/mL was administered through the tracheal intubation, and the rats were rotated for 5 min after drug administration for use, referred to as the Bleo group or the model group in the present application; (4) Bleo+BA-DPI group: the same modeling method as the Bleo model group was used, and BA-DPI was administered through the tracheal intubation via DP-4 rat dry powder lung drug delivery device (manufacturer: Beijing YSKD Biotechnology Co.) at a dose of 9 mg/kg, 3 mg per day for 28 days; (5) Bleo+AH-DPI group (same method as 4); (6) Bleo+BA/AH-DPI group (same method as 4); (7) Bleo+tail intravenous injection group: the formulation solution was administered by tail intravenous injection at a concentration of 3 mg/ml, 9 mg/kg, for a total of 28 days, starting from the second day after the modeling; (8) Bleo+pirfenidone group: 2 ml per day at a concentration of 11.6 mg/ml was administered by gavage starting from the second day after successful modeling for 28 days. […]

[3] = system: inflammatory factors IL-4, IL-6, IL-8, and IL-1β in BALF; assay: Inflammatory factors in BALF by ELISA; assay type: in vivo, rat; conditions: Bleo rats after 28 days, compared with Bleo group
Experimental: as §1
In order to verity whether BA/AH-DPI can regulate the inflammatory process by modulating the secretion of cytokines, the application also measured the concentrations of inflammatory factors IL-4, IL-6, IL-8, and IL-1β in BALF to determine the protective and therapeutic effects of BA/AH-DPI in the pathogenesis of Bleo-induced idiopathic pulmonary fibrosis.
The above BALF supernatant was measured by enzyme-linked immunosorbent assay (ELISA) to detect the concentration levels of inflammatory factors IL-4, IL-6, IL-8, IL-1β, as well as IFN-γ and TGF-β1. […]

[4] = system: rats having Bleo-induced pulmonary fibrosis; assay: Total protein in bronchoalveolar lavage fluid (BALF), colorimetric; assay type: in vivo, rat; conditions: Bleo rats after 28 days of treatment, n = 6; Bleo group 17.04, normal 7.86
Experimental: as §1

[5] = system: rats having Bleo-induced pulmonary fibrosis; assay: Hydroxyproline (Hyp) in lung tissue homogenates by ELISA; assay type: in vivo, rat; conditions: Bleo rats after 28 days of treatment; Bleo group 118.33, normal 76.43
Experimental: as §1

[6] = system: rats having Bleo-induced pulmonary fibrosis; assay: HE staining of rat lung tissue; assay type: in vivo; conditions: Bleo rats after 28 days, compared with Bleo model group
Experimental: as §1

[7] = system: rats having Bleo-induced pulmonary fibrosis; assay: Pulmonary function index assay (EMKA pulmonary function detector); assay type: in vivo, rat; conditions: day 28, DPI intratracheal or tail i.v. 9 mg/kg, pirfenidone gavage, daily 28 days
Experimental: 48 SPF healthy SD male rats (weight of 180-220 g) were randomly divided into 8 groups, 6 rats for each group: (1) normal group (control group): normal rearing in the animal center; (2) sham group: this group was given the same dose of air by pulmonary administration; (3) Bleo model group: 100 μL of Bleo solution with a concentration of 12.5 mg/mL was administered through the tracheal intubation, and the rats were rotated for 5 min after drug administration for use, referred to as the Bleo group or the model group in the present application; (4) Bleo+BA-DPI group: the same modeling method as the Bleo model group was used, and BA-DPI was administered through the tracheal intubation via DP-4 rat dry powder lung drug delivery device (manufacturer: Beijing YSKD Biotechnology Co.) at a dose of 9 mg/kg, 3 mg per day for 28 days; (5) Bleo+AH-DPI group (same method as 4); (6) Bleo+BA/AH-DPI group (same method as 4); (7) Bleo+tail intravenous injection group: the formulation solution was administered by tail intravenous injection at a concentration of 3 mg/ml, 9 mg/kg, for a total of 28 days, starting from the second day after the modeling; (8) Bleo+pirfenidone group: 2 ml per day at a concentration of 11.6 mg/ml was administered by gavage starting from the second day after successful modeling for 28 days.
Lung DPI dry powder administration operation: DPI powder was weighed precisely and placed in the storage room of the drug delivery device, the DP4 dry powder delivery device was installed, connected to the syringe with 1.5-2 ml of air, the rat was laid on the tracheal intubation platform after anesthesia, the rat laryngoscope was used to expose the tracheal opening, when the tracheal opening was open, the nozzle of the drug delivery device was immediately inserted through the tracheal opening to the bronchial fork, and the air was immediately pushed into the drug delivery device to push DPI fine powder into the rat's lung. The rat in sham group was pushed with 1.5-2 ml of air (not including the drug) as described above.
Various respiratory indices, including inspiratory duration (Ti), expiratory duration (Te), maximal inspiratory flow (PIF), maximal expiratory flow (PEF), tidal volume (TV), relaxation time (RT), and expiratory volume (EV), in freely moving rats were measured by EMKA pulmonary function detector at the completion of modeling on day 28.

[8] = system: rats having Bleo-induced pulmonary fibrosis; assay: Body weight changes in rats; assay type: in vivo, rat; conditions: days 1-28, compared with Bleo group
Experimental: as §1

[9] = system: SOD, MDA, LDH in rat lung tissue; assay: Oxidative stress indicators (SOD, MDA, LDH) in lung tissue homogenates; assay type: in vivo; conditions: Bleo rats after 28 days, compared with Bleo group
Experimental: as §1
Oxidative stress played an important role in the process of Bleo-induced pulmonary fibrosis. […] Therefore, in the application, SOD was measured in conjunction with MDA in order to observe the role in pulmonary fibrosis. […]

MPO = assay: Myeloperoxidase (MPO) level in serum; assay type: in vivo, rat; conditions: Bleo rats after 28 days, compared with Bleo group
Experimental: as §1

## CC(C)C[C@H](N)C(=O)O [L-leu, L-leucine]
[1]
  D10: 9.39 μm
  D50: 50.97 μm
  D90: 84.70 μm
  SMD (Sauter mean diameter): 16.64 μm
  VMD (Volume median diameter): 49.54 μm
[1]; fraction of particles
  <3 μm: 3.80%
  <5 μm: 6.08%

## Cc1ccc(=O)n(-c2ccccc2)c1 [pirfenidone, Pirfenidone]
[2]
  Lung factor: 6.15 ± 0.84
[3]
  IL-1β level in BALF: significantly lower
  IL-4 level in BALF: significantly lower
  IL-8 level in BALF: significantly lower
[4]
  Total protein concentration in BALF: 10.59 ± 1.47 mg/mL
[5]
  Hyp content in lung tissue: 83.40 pg/mL
[6]
  Histopathology of lung tissue (HE staining): less fibrotic features and inflammatory infiltration
[7]
  EV (expiratory volume): 1.23 ± 0.30 mL
  PEF (maximal expiratory flow): 10.76 ± 5.93 mL/s
  PIF (maximal inspiratory flow): 12.52 ± 4.68 mL/s
  RT (relaxation time): 158.82 ± 63.19 ms
  TV (tidal volume): 1.22 ± 0.30 mL
  Te (expiratory duration): 265.48 ± 99.45 ms
  Ti (inspiratory duration): 180.56 ± 49.34 ms
[8]
  Body weight of rats: significantly different from that in the Bleo group from day 14
[9]
  LDH content in lung tissue: significantly decreased
  MDA level in lung tissue: significantly decreased
  SOD antioxidant index in lung tissue: significantly increased
MPO
  MPO activity in serum: significantly inhibited MPO activity
